Several values for one entry are separate records, joined by “and”; a condition that tells them apart may be missing. Identical values can stand only once. Inconclusive results and toxic doses are left out.
Tested on: BDF1 mice, P388 leukemia ip, median survival T/C
Test: NCI In Vivo Anticancer Drug Screen. Data for tumor model P388 Leukemia (intraperitoneal) in B6D2F1 (BDF1) mice
Settings: endpoint: median survival time, higher = longer survival
Outline: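 Transplantable tumour in mice; compound vs vehicle dosing; survival scored; ratio of treated to control reported.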

[1] = dose: 100.0 mg/kg/injection, schedule: Q01DX009 (ip), vehicle: saline
[2] = dose: 100.0 mg/kg/injection, schedule: Q04DX003 (ip), vehicle: saline
[3] = dose: 200.0 mg/kg/injection, schedule: Q01DX009 (ip), vehicle: saline
[4] = dose: 200.0 mg/kg/injection, schedule: Q04DX003 (ip), vehicle: saline
[5] = dose: 400.0 mg/kg/injection, schedule: Q01DX009 (ip), vehicle: saline
[6] = dose: 400.0 mg/kg/injection, schedule: Q04DX003 (ip), vehicle: saline
[7] = dose: 100.0 mg/kg/injection, schedule: Q01DX009 (ip), vehicle: saline with Tween-80
[8] = dose: 100.0 mg/kg/injection, schedule: Q04DX003 (ip), vehicle: saline with Tween-80
[9] = dose: 200.0 mg/kg/injection, schedule: Q01DX009 (ip), vehicle: saline with Tween-80
[10] = dose: 200.0 mg/kg/injection, schedule: Q04DX003 (ip), vehicle: saline with Tween-80
[11] = dose: 400.0 mg/kg/injection, schedule: Q01DX009 (ip), vehicle: saline with Tween-80
[12] = dose: 400.0 mg/kg/injection, schedule: Q04DX003 (ip), vehicle: saline with Tween-80
[13] = dose: 12.5 mg/kg/injection, schedule: Q01DX009 (ip), vehicle: saline with Tween-80
[14] = dose: 50.0 mg/kg/injection, schedule: Q01DX009 (ip), vehicle: saline with Tween-80
[15] = dose: 50.0 mg/kg/injection, schedule: Q04DX003 (ip), vehicle: saline with Tween-80

Cc1cccc2cc3cccc[n+]3cc12
T/C (dose: 1.56 mg/kg/injection, schedule: Q01DX009 (ip), vehicle: saline): 104 % of control
T/C (dose: 3.12 mg/kg/injection, schedule: Q01DX009 (ip), vehicle: saline): 104 % of control
T/C (dose: 6.25 mg/kg/injection, schedule: Q01DX009 (ip), vehicle: saline): 109 % of control
T/C (dose: 6.75 mg/kg/injection, schedule: Q04DX003 (ip), vehicle: saline): 105 % of control
T/C (dose: 9.2 mg/kg/injection, schedule: Q01DX009 (ip), vehicle: saline): 109 % of control
T/C (dose: 13.5 mg/kg/injection, schedule: Q04DX003 (ip), vehicle: saline): 90 % of control

NC(=O)N(CCO)CCO
T/C [1]: 100 % of control
T/C [2]: 100 % of control
T/C [3]: 90 % of control
T/C [4]: 100 % of control
T/C [5]: 100 % of control
T/C [6]: 100 % of control

CC(C)C1NC(=O)C2CCCN2C1=O (stereo not given)
T/C [7]: 100 % of control
T/C [8]: 109 % of control
T/C [9]: 100 % of control
T/C [10]: 113 % of control
T/C [11]: 123 % of control
T/C [12]: 118 % of control

OC(Cc1ccccc1)(c1ccccc1)c1cccc2ccccc12 (stereo not given)
T/C (dose: 100.0 mg/kg/injection, schedule: Q01DX009 (ip), vehicle: Klucel (hydroxypropylcellulose) (HPC)): 100 % of control
T/C (dose: 200.0 mg/kg/injection, schedule: Q01DX009 (ip), vehicle: Klucel (hydroxypropylcellulose) (HPC)): 100 % of control
T/C (dose: 400.0 mg/kg/injection, schedule: Q01DX009 (ip), vehicle: Klucel (hydroxypropylcellulose) (HPC)): 104 % of control

COc1cc(C=Nc2cccc(Cl)c2)ccc1N(CCCl)CCCl
T/C (dose: 8.0 mg/kg/injection, schedule: Q04DX003 (ip), vehicle: saline with Tween-80): 195 % of control
T/C [13]: 187 % of control
T/C (dose: 16.0 mg/kg/injection, schedule: Q04DX003 (ip), vehicle: saline with Tween-80): 187 % of control
T/C (dose: 25.0 mg/kg/injection, schedule: Q01DX009 (ip), vehicle: saline with Tween-80): 187 % of control
T/C (dose: 33.0 mg/kg/injection, schedule: Q04DX003 (ip), vehicle: saline with Tween-80): 207 % of control
T/C [14]: 95 % of control
T/C [15]: 230 % of control

CC(=O)[O][Hg][c]1c(C)c(C)cc(C)c1C
T/C (dose: 12.5 mg/kg/injection, schedule: Q01DX009 (ip), vehicle: saline): 108 % of control
T/C (dose: 25.0 mg/kg/injection, schedule: Q01DX009 (ip), vehicle: saline): 121 % of control

S=C1SCN(Cc2cccs2)CN1Cc1cccs1
T/C (dose: 50.0 mg/kg/injection, schedule: Q01DX005 (ip), vehicle: saline with Tween-80): 99 % of control
T/C (dose: 100.0 mg/kg/injection, schedule: Q01DX005 (ip), vehicle: saline with Tween-80): 87 % of control
T/C (dose: 200.0 mg/kg/injection, schedule: Q01DX005 (ip), vehicle: saline with Tween-80): 95 % of control

O=c1c2ccccc2nc(-c2ccccc2Cl)n1-c1nnc(C(F)(F)F)s1
T/C (dose: 3.12 mg/kg/injection, schedule: Q01DX009 (ip), vehicle: saline with Tween-80): 87 % of control
T/C (dose: 6.25 mg/kg/injection, schedule: Q01DX009 (ip), vehicle: saline with Tween-80): 89 % of control
T/C [13]: 89 % of control

Cc1occc(=O)c1O
T/C [14]: 88 % of control
T/C [7]: 117 % of control
T/C [9]: 90 % of control
T/C [11]: 106 % of control

CN=C(N)Nc1ccc(C(=O)Oc2ccc([N+](=O)[O-])cc2)cc1
T/C (dose: 12.5 mg/kg/injection, schedule: Q01DX009 (ip), vehicle: water): 89 % of control
T/C (dose: 25.0 mg/kg/injection, schedule: Q01DX009 (ip), vehicle: water): 95 % of control
T/C (dose: 50.0 mg/kg/injection, schedule: Q01DX009 (ip), vehicle: water): 87 % of control
T/C (dose: 50.0 mg/kg/injection, schedule: Q04DX003 (ip), vehicle: water): 122 % of control
T/C (dose: 100.0 mg/kg/injection, schedule: Q04DX003 (ip), vehicle: water): 110 % of control
T/C (dose: 200.0 mg/kg/injection, schedule: Q01DX009 (ip), vehicle: water): 105 % of control
T/C (dose: 200.0 mg/kg/injection, schedule: Q04DX003 (ip), vehicle: water): 113 % of control

O=C(Nc1cccc2ccccc12)N1c2ccccc2SC12CCCC2
T/C [7]: 91 % of control

Cc1ncc(CO)c(C2NOCc3ccc(Cl)cc32)c1O (stereo not given)
T/C (dose: 12.5 mg/kg/injection, schedule: Q01DX009 (ip), vehicle: Klucel (hydroxypropylcellulose) (HPC)): 104 % of control
T/C (dose: 25.0 mg/kg/injection, schedule: Q01DX009 (ip), vehicle: Klucel (hydroxypropylcellulose) (HPC)): 86 % of control
T/C (dose: 25.0 mg/kg/injection, schedule: Q04DX003 (ip), vehicle: Klucel (hydroxypropylcellulose) (HPC)): 111 % of control
T/C (dose: 50.0 mg/kg/injection, schedule: Q04DX003 (ip), vehicle: Klucel (hydroxypropylcellulose) (HPC)): 105 % of control
T/C (dose: 100.0 mg/kg/injection, schedule: Q04DX003 (ip), vehicle: Klucel (hydroxypropylcellulose) (HPC)): 122 % of control

CC(=O)Nc1ccc(/C=N/Nc2ccc([N+](=O)[O-])cn2)cc1
T/C (dose: 62.5 mg/kg/injection, schedule: Q01DX010 (ip), vehicle: saline): 95 % of control
T/C (dose: 100.0 mg/kg/injection, schedule: Q04DX003 (ip), vehicle: saline sonified): 105 % of control
T/C (dose: 125.0 mg/kg/injection, schedule: Q01DX010 (ip), vehicle: saline): 90 % of control
T/C (dose: 200.0 mg/kg/injection, schedule: Q04DX003 (ip), vehicle: saline sonified): 105 % of control
T/C (dose: 250.0 mg/kg/injection, schedule: Q01DX010 (ip), vehicle: saline): 100 % of control
T/C (dose: 400.0 mg/kg/injection, schedule: Q04DX003 (ip), vehicle: saline sonified): 100 % of control

O=C(CCCCC(=O)Nc1ccc(C(=O)Nc2cc(C3=NCCN3)cc(C3=NCCN3)c2)cc1)Nc1ccc(C(=O)Nc2cc(C3=NCCN3)cc(C3=NCCN3)c2)cc1
T/C (dose: 66.0 mg/kg/injection, schedule: Q01DX009 (ip), vehicle: saline): 150 % of control
T/C (dose: 150.0 mg/kg/injection, schedule: Q01DX009 (ip), vehicle: saline): 150 % of control
T/C (dose: 150.0 mg/kg/injection, schedule: Q04DX003 (ip), vehicle: saline): 154 % of control
T/C [4]: 150 % of control

CN(N=O)P(=O)(Nc1ccccc1)Nc1ccccc1
T/C (dose: 25.0 mg/kg/injection, schedule: Q04DX003 (ip), vehicle: other): 100 % of control
T/C (dose: 50.0 mg/kg/injection, schedule: Q04DX003 (ip), vehicle: other): 100 % of control
T/C (dose: 100.0 mg/kg/injection, schedule: Q04DX003 (ip), vehicle: other): 95 % of control

Sc1ccc(Nc2c3ccccc3nc3ccccc23)cc1
T/C [14]: 102 % of control and 108 % of control
T/C [7]: 100 % of control and 118 % of control

COc1cc(/C=N/n2cnnc2)cc(OC)c1OC
T/C [2]: 100 % of control
T/C [4]: 100 % of control
T/C [6]: 109 % of control

CC(=O)c1ccc(NC(=O)C(F)(F)F)cc1
T/C [15]: 111 % of control
T/C [8]: 96 % of control
T/C [10]: 103 % of control
T/C [12]: 103 % of control

Cc1cc(C)nc(NNc2nc(C)cc(C)n2)n1
T/C [7]: 92 % of control
T/C [8]: 91 % of control
T/C [9]: 103 % of control
T/C [10]: 95 % of control
T/C [11]: 89 % of control
T/C [12]: 95 % of control

S=C(Cc1ccccc1)N1CCN(c2ccc(Cl)cc2)CC1
T/C [14]: 104 % of control
T/C [7]: 100 % of control
T/C [9]: 100 % of control

COc1cc2c(cc1OC)C1CC(O)(c3nccc4cc(OC)c(OC)cc34)CCN1CC2 (stereo not given)
T/C [14]: 91 % of control
T/C [7]: 91 % of control
T/C [9]: 87 % of control

O=C1NN(c2ccccc2)C(=O)/C1=C\c1ccccc1O
T/C (dose: 350.0 mg/kg/injection, schedule: Q01DX009 (ip), vehicle: saline with Tween-80): 97 % of control

N#[N+]c1ccc2c(S(=O)(=O)O)cccc2c1O
T/C [1]: 92 % of control
T/C [2]: 100 % of control
T/C [3]: 103 % of control
T/C [4]: 108 % of control
T/C [5]: 89 % of control
T/C [6]: 95 % of control

Cc1cc(N)on1
T/C [1]: 100 % of control
T/C [2]: 109 % of control
T/C [3]: 96 % of control
T/C [4]: 109 % of control
T/C [6]: 109 % of control

CC(=O)N1c2ccccc2Sc2ccc3ccc(C(=O)CCl)cc3c21
T/C [7]: 153 % of control

From PubChem BioAssay AID328 (DTP/NCI, 2004)
